The values that follow come from patent US20150343016A1, “CHEMICAL ENTITIES AND THERAPEUTIC USES THEREOF” (The Regents of the University of Colorado, a body corporate, priority 2010, published 2015).

The subject of assay [1] is p53 mutant Drosophila larvae. The assay is described as follows: Drosophila larval survival to adulthood (eclosion), drug with and without IR, p53 mutants. It counts as in vivo. The conditions noted are these: p53 mutants; for eclosion expected if the two treatments produced an additive effect: Bouvardin and IR. The protocol: To validate the identification of Bouvardin from the primary screen, the effect of this molecule on Drosophila larvae alone or in combination with radiation were assessed (FIG. 12). The screen was performed using irradiated mutant larvae. Hits from the screen were defined as those that reduced the survival of IRRADIATED larvae compared to the population of drugs being tested (approximately 80 molecules at a time) or compared to DMSO controls in the re-test. A hit could therefore act by enhancing the effect of radiation, or by simply killing larvae as a single agent, or both. To distinguish among these possibilities, hits from the screen were re-tested against larvae with and without irradiation.
In FIG. 12 survival after each treatment is expressed as the fraction of animals that emerged (“eclosed”) as viable adults. The averages have been normalized to the average fraction eclosed in no IR/drug control for the respective genotype. Error bars extend beyond fractional survival of 1.0 simply because of normalization. (A-C) Fraction eclosed for WT and grp and p53 mutants at 16 uM of Bouvardin, with and without IR. The data are averages of 3-8 biological replicates per sample. Dotted line on each graph denotes expected ‘fraction eclosed’ if drug and IR act additively. IR doses were 4000R for WT and grp and 3000R for p53 because of the higher radiation sensitivity of the latter. (D) Fraction eclosed for Minute mutants and yw controls after exposure to 0 (−IR) and 2000R (+IR) of X-rays. N ranged from 86-207 per genotype per treatment, in 3 biological replicates per sample. *=p<0.01; **=<0.001. 100R=1Gy. Error bar=1 standard deviation.
The activity of Bouvardin in Drosophila alone or in combination with ionizing radiation (IR) was assessed. Drug concentrations of 10-20 μM were used to approximate the conditions of the original screen. Third instar larvae were irradiated and cultured on medium containing drug. The survival of larvae was quantified 10 days later by measuring the rate of eclosion into adulthood. […] For example, IR alone reduces the eclosion of p53 mutants to 0.63±0.05 and 10 μM of drug reduces it to 0.82±0.15. The combination of Bouvardin and IR reduces eclosion to 0.49, nearly the exact number expected (0.63±0.05×0.82±0.15=0.51±0.10) if the two treatments produced an additive effect. The expected eclosion for additive effect of drug and radiation are denoted with a white dotted line in each graph.
Wild type flies were of the Sevelin stock. Mutants have been described before. p535A-1-4 results from targeted deletion of the gene, and is maintained and used as homogygotes. grpl (Chk1 mutants) results from a p-element insertion and is a genetic null. Homozygotes of the latter were identified by the lack of GFP marker on the balancer chromosome. Minute mutants were of the genotypes y[1]w[*]; P[w[+mC]=lacW]RpS131/CyO and P[lacW]RpL36G0471 w67c23/FM7a. Because Minute mutants were in yw or w background, y1w1 (Bloomington stock #1495) was used as ‘wild type’ control in these experiments.
Feeding stage 3rd instar larvae were irradiated as previously described (2). Briefly, 120 hr old larvae were rinsed to remove food and passed through sizing sieves to obtain animals of uniform size. Larvae were placed in a Petri dish and irradiated using a TORREX X-ray generator, set at 115 kV and 5 mA (producing 2.4 Rads/sec or 1.44 Gy/min) Irradiated larvae were then cultured on cornmeal-agar media (2) containing drug or DMSO carrier. In all experiments using human cells, cells in 96-well plates were irradiated with a RS2000 Biological Irradiator (Rad Source Technologies, Inc.) delivering 1 Gy/min.

The target of assay [2] is in vitro translation in rabbit reticulocytes. The assay is described as follows: In vitro translation assay in rabbit reticulocytes with Luciferase mRNA. It counts as biochemical. Here is the method: In vitro translation assays were performed in rabbit reticulocytes (Promega) according to manufacturer's instruction, in the presence or absence of Bouvardin at final concentrations shown. Luciferase mRNA provided in the kit was used at a final concentration of 1 ug/ul. The reactions samples were incubated for 15 minutes at 37° C. and quenched by dilution with water. Luciferase activity was measured using a plate reader Multi-Mode Microplate Reader (Synergy 2 by BioTek) immediately after luciferase substrate addition. Samples were also subjected to electrophoresis on SDS-polyacrylamide gels and immunoblotted with goat polyclonal α-luciferase primary antibodies (Promega) and donkey anti-goat IgG, HRP secondary antibodies (Promega). The blots were visualized using chemiluminescence detection (Pierce). (A) Luciferase activity at different concentrations of Bouvardin. Error bars show SEM from triplicate samples. (B) Luciferase protein levels in corresponding samples.

For `COc1ccc(C[C@H]2C(=O)N[C@H](C)C(=O)N(C)[C@@H]3C(=O)N(C)[C@@H](Cc4ccc(O)c(c4)Oc4ccc(cc4)[C@H]3O)C(=O)N[C@@H](C)C(=O)N[C@H](C)C(=O)N2C)cc1` (stereo in doubt) [Bouvardin, bouvardin], the “manner in which drug and radiation act together” value in assay [1] is recorded as “additive manner”. The “eclosion (fraction eclosed, normalized to no IR/drug control)” value in assay [1] (10 μM of drug alone) is 0.82±0.15; in assay [1] (combination of Bouvardin and IR) it was 0.49. Besides, the eclosion in assay [1] (10 mM of drug alone) came out at 0.82. Also, the results for the “eclosion expected if the two treatments produced an additive effect” value in assay [1] and in assay [1] (listed as bouvardin) were 0.51±0.10 and 0.50, respectively. The “effect on the killing effect of radiation (+IR versus +both)” value in assay [1] (drug 10-20 μM) is given as “increased the killing effect of radiation in a statistically significant manner”. The “IC50 in in vitro translation reactions” value in assay [2] is given as “nM range”. Also, the “effect on in vitro translation (luciferase activity and protein)” value in assay [2] (15 minutes at 37° C.) is recorded as “inhibits translation”.
